Results from patent publication US9127038B2, “Kisspeptide-pentasaccharide conjugates” (Merck Sharp & Dohme Corp., priority 2011, dated 2015).
Where two headings read alike, the source gives them in different places.

Tests used:
human KISS-receptor = biological target: T1, human KISS-receptor (Homo sapiens, UniProt Q969F8); assay: NFAT-regulated luciferase reporter gene assay in CHO-k1 cells, agonist activity; assay type: cell-based
T1 construct: expressed in transfected cells; host or cells: CHO-k1 cells that also express mitochondrially targeted aequorin, Gα16 and an NFAT-luciferase reporter

[1] = In vitro stability in human serum (LC/MS/MS); settings: human
Description: Test compound is added to 1.5 mL human serum in a 96-wells deepwell plate in a final concentration of 750 nM. The compound is mixed and immediately thereafter a 100 μl sample is harvested in a 96-wells 2D-tuberack (T=0 sample). The 2 D-tubes are closed with rubber tube caps and the sample plate is stored at −20° CF. in the freezer. The deepwell plate is put into an incubator which was set at humidified (95%) atmosphere at 5-7% CO2 and 37° C. for an incubation period of maximum 240 h. During this incubation period, samples of 100 μl are collected on various time intervals, dependent on the test compound used; time points 0, 1, 2, 3, 6, 24, 48, 72 h in case of Kisspeptides and 0, 3, 6, 24, 48, 72, 168, 240 h in case of kisspeptide-pentasaccharide conjugates. Sample plates are put on ice in case of sampling and stored at −20° C. until analysis by LC/MS/MS.
For LC-MS/MS analysis, the compounds are separated over an XTerra RP8 column and using a gradient mobile phase of ammonium acetate buffer and acetonitrile at a fixed column temperature. MS/MS detection is done with a triple quadrupole mass spectrometer and employing negative ion electrospray ionization. The mass spectrometer is set up to achieve a known degree of in source fragmentation, where the initially formed multiply charged negative ions lose one or more SO3 molecules. The most abundant of these secondary ions are then subjected to a common MS/MS experiment in which a single SO3 loss is monitored. The Q1 and Q3 mass filter settings for this MS/MS experiment have commonly been determined in method development. […] Internal standardization is accomplished by adding a different conjugate of approximately the same size to the bioanalytical samples.
The rate of compound loss is expressed as a half-life (plasma t^1/2). The t^1/2 for the test compound can be determined by plotting the natural logarithm (In) of the measured concentrations against time and fitting the line through all data points. The gradient of this line is the first order rate constant (k) for substrate disappearance and is determined by regression analysis. The rate constant is converted to a half-life according to the following equation: In vitro half-life(t^1/2)=−ln 2/k

[2] = pEC50 serum, presence of 20% human serum
[3] = absence of human serum, read-out: pEC50 (converted)
[4] = presence of 20% human serum, read-out: pEC50 serum (converted)

T1 sequence (Q969F8 whole entry): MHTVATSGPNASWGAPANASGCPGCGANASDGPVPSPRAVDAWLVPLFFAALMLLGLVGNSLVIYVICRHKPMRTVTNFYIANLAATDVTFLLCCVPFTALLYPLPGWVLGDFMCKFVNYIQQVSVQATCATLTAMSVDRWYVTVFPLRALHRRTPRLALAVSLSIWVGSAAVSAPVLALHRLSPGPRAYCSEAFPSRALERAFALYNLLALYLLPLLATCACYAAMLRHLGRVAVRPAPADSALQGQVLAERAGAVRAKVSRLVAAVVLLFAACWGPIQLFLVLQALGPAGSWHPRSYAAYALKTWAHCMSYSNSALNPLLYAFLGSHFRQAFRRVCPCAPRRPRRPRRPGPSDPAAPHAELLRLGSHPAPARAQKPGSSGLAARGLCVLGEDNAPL

SMILES | half-life at 750 nM [1] | further results
CNC(=N)NCCC[C@H](NC(=O)[C@H](CC(C)C)NC(=O)NNC(=O)[C@H](Cc1ccccc1)NC(=O)[C@@H](NC(=O)[C@H](CC(N)=O)NC(=O)[C@H](Cc1c[nH]c2ccccc12)NC(=O)[C@H](CC(N)=O)NC(=O)[C@@H](Cc1ccc(O)cc1)NC(=O)CCCCn1cc(CCC(=O)NCCOCCOCCOCCO[C@H]2[C@H](OC)[C@@H](OC)[C@@H](O[C@H]3[C@H](OC)[C@@H](OC)[C@H](O[C@H]4[C@H](OS(=O)(=O)O)[C@@H](OS(=O)(=O)O)[C@@H](O[C@H]5[C@H](OC)[C@@H](OC)[C@H](O[C@H]6[C@H](OC)[C@@H](OS(=O)(=O)O)[C@@H](OC)O[C@@H]6COS(=O)(=O)O)O[C@H]5C(=O)O)O[C@@H]4COS(=O)(=O)O)O[C@@H]3C(=O)O)O[C@@H]2COS(=O)(=O)O)nn1)[C@@H](C)O)C(=O)N[C@@H](Cc1ccccc1)C(N)=O [Conjugate C7] | 171 h | EC50 (human KISS-receptor; pEC50, absence of human serum): 0.158 nM; EC50 (human KISS-receptor; [2]): 0.501 nM
CNC(=N)NCCC[C@H](NC(=O)[C@H](CC(C)C)NC(=O)NNC(=O)[C@H](Cc1ccccc1)NC(=O)[C@@H](NC(=O)[C@H](CC(N)=O)NC(=O)[C@H](Cc1c[nH]c2ccccc12)NC(=O)[C@H](CC(N)=O)NC(=O)[C@@H](Cc1ccc(O)cc1)NC(=O)CCOCCOCCOCCOCCn1cc(CCC(=O)NCCOCCOCCOCCO[C@H]2[C@H](OC)[C@@H](OC)[C@@H](O[C@H]3[C@H](OC)[C@@H](OC)[C@H](O[C@H]4[C@H](OS(=O)(=O)O)[C@@H](OS(=O)(=O)O)[C@@H](O[C@H]5[C@H](OC)[C@@H](OC)[C@H](O[C@H]6[C@H](OS(=O)(=O)O)[C@@H](OS(=O)(=O)O)[C@@H](OC)O[C@@H]6COS(=O)(=O)O)O[C@H]5C(=O)O)O[C@@H]4COS(=O)(=O)O)O[C@@H]3C(=O)O)O[C@@H]2COS(=O)(=O)O)nn1)C(C)O)C(=O)N[C@@H](Cc1ccccc1)C(N)=O (stereo partly shown) [Conjugate C11] | > 240 h | –
CNC(=N)NCCC[C@H](NC(=O)[C@H](CC(C)C)n1cc(CNC(=O)[C@H](Cc2ccccc2)NC(=O)[C@@H](NC(=O)[C@H](CC(N)=O)NC(=O)[C@H](Cc2c[nH]c3ccccc23)NC(=O)[C@H](CC(N)=O)NC(=O)[C@@H](Cc2ccc(O)cc2)NC(=O)CCCCn2cc(CCC(=O)NCCOCCOCCOCCO[C@H]3[C@H](OC)[C@@H](OC)[C@@H](O[C@H]4[C@H](OC)[C@@H](OC)[C@H](O[C@H]5[C@H](OS(=O)(=O)O)[C@@H](OS(=O)(=O)O)[C@@H](O[C@H]6[C@H](OC)[C@@H](OC)[C@H](O[C@H]7[C@H](OC)[C@@H](OS(=O)(=O)O)[C@@H](OC)O[C@@H]7COS(=O)(=O)O)O[C@H]6C(=O)O)O[C@@H]5COS(=O)(=O)O)O[C@@H]4C(=O)O)O[C@@H]3COS(=O)(=O)O)nn2)[C@@H](C)O)nn1)C(=O)N[C@@H](Cc1ccccc1)C(N)=O [Conjugate C18] | 233 h | –
CNC(=N)NCCC[C@H](NC(=O)[C@H](CC(C)C)n1cc(CNC(=O)[C@H](Cc2ccccc2)NC(=O)[C@@H](NC(=O)[C@H](CC(N)=O)NC(=O)[C@H](Cc2c[nH]c3ccccc23)NC(=O)[C@H](CC(N)=O)NC(=O)[C@@H](Cc2ccc(O)cc2)NC(=O)CCOCCOCCOCCOCCn2cc(CCC(=O)NCCOCCOCCOCCO[C@H]3[C@H](OC)[C@@H](OC)[C@@H](O[C@H]4[C@H](OC)[C@@H](OC)[C@H](O[C@H]5[C@H](OS(=O)(=O)O)[C@@H](OS(=O)(=O)O)[C@@H](O[C@H]6[C@H](OC)[C@@H](OC)[C@H](O[C@H]7[C@H](OC)[C@@H](OS(=O)(=O)O)[C@@H](OC)O[C@@H]7COS(=O)(=O)O)O[C@H]6C(=O)O)O[C@@H]5COS(=O)(=O)O)O[C@@H]4C(=O)O)O[C@@H]3COS(=O)(=O)O)nn2)[C@@H](C)O)nn1)C(=O)N[C@@H](Cc1ccccc1)C(N)=O [Conjugate C19] | 175 h | –
CNC(=N)NCCC[C@H](NC(=O)[C@H](CC(C)C)n1cc(CNC(=O)[C@H](Cc2ccccc2)NC(=O)[C@@H](NC(=O)[C@H](CC(N)=O)NC(=O)[C@H](Cc2c[nH]c3ccccc23)NC(=O)[C@H](CC(N)=O)NC(=O)[C@@H](Cc2ccc(O)cc2)NC(=O)CCOCCOCCOCCOCCn2cc(CCC(=O)NCCOCCOCCOCCO[C@H]3[C@H](OC)[C@@H](OC)[C@@H](O[C@H]4[C@H](OC)[C@@H](OC)[C@H](O[C@H]5[C@H](OS(=O)(=O)O)[C@@H](OS(=O)(=O)O)[C@@H](O[C@H]6[C@H](OC)[C@@H](OC)[C@H](O[C@H]7[C@H](OS(=O)(=O)O)[C@@H](OS(=O)(=O)O)[C@@H](OC)O[C@@H]7COS(=O)(=O)O)O[C@H]6C(=O)O)O[C@@H]5COS(=O)(=O)O)O[C@@H]4C(=O)O)O[C@@H]3COS(=O)(=O)O)nn2)[C@@H](C)O)nn1)C(=O)N[C@@H](Cc1ccccc1)C(N)=O [Conjugate C20] | > 240 h | –
CNC(=N)NCCC[C@H](NC(=O)[C@H](CC(C)C)NC(=O)NNC(=O)[C@H](Cc1ccccc1)NC(=O)[C@@H](NC(=O)[C@H](CC(N)=O)NC(=O)[C@H](Cc1c[nH]c2ccccc12)NC(=O)[C@H](CC(N)=O)NC(=O)[C@H](Cc1ccc(O)cc1)NC(=O)CCCCn1cc(CCC(=O)NCCOCCOCCOCCO[C@H]2[C@H](OC)[C@@H](OC)[C@@H](O[C@H]3[C@H](OC)[C@@H](OC)[C@H](O[C@H]4[C@H](OS(=O)(=O)O)[C@@H](OS(=O)(=O)O)[C@@H](O[C@H]5[C@H](OC)[C@@H](OC)[C@H](O[C@H]6[C@H](OS(=O)(=O)O)[C@@H](OS(=O)(=O)O)[C@@H](OC)O[C@@H]6COS(=O)(=O)O)O[C@H]5C(=O)O)O[C@@H]4COS(=O)(=O)O)O[C@@H]3C(=O)O)O[C@@H]2COS(=O)(=O)O)nn1)[C@@H](C)O)C(=O)N[C@@H](Cc1ccccc1)C(N)=O [Conjugate C22] | > 240 h | –
CNC(=N)NCCC[C@H](NC(=O)[C@H](CC(C)C)NC(=O)CNC(=O)[C@H](Cc1ccccc1)NC(=O)[C@@H](NC(=O)[C@H](CC(N)=O)NC(=O)[C@@H]1C[C@@H](O)CN1C(=O)[C@H](CC(N)=O)NC(=O)[C@H](Cc1ccc(O)cc1)NC(=O)CCOCCOCCOCCOCCn1cc(CCC(=O)NCCOCCOCCOCCO[C@H]2[C@H](OC)[C@@H](OC)[C@@H](O[C@H]3[C@H](OC)[C@@H](OC)[C@H](O[C@H]4[C@H](OS(=O)(=O)O)[C@@H](OS(=O)(=O)O)[C@@H](O[C@H]5[C@H](OC)[C@@H](OC)[C@H](O[C@H]6[C@H](OS(=O)(=O)O)[C@@H](OS(=O)(=O)O)[C@@H](OC)O[C@@H]6COS(=O)(=O)O)O[C@H]5C(=O)O)O[C@@H]4COS(=O)(=O)O)O[C@@H]3C(=O)O)O[C@@H]2COS(=O)(=O)O)nn1)[C@@H](C)O)C(=O)N[C@@H](Cc1ccccc1)C(N)=O [Conjugate C26] | > 240 h | –
CNC(=N)NCCC[C@H](NC(=O)[C@H](CC(C)C)NC(=O)NNC(=O)[C@H](Cc1ccccc1)NC(=O)[C@@H](NC(=O)[C@H](CC(N)=O)NC(=O)[C@@H]1C[C@@H](O)CN1C(=O)[C@@H](Cc1ccc(O)cc1)NC(=O)CCCCn1cc(CCC(=O)NCCOCCOCCOCCO[C@H]2[C@H](OC)[C@@H](OC)[C@@H](O[C@H]3[C@H](OC)[C@@H](OC)[C@H](O[C@H]4[C@H](OS(=O)(=O)O)[C@@H](OS(=O)(=O)O)[C@@H](O[C@H]5[C@H](OC)[C@@H](OC)[C@H](O[C@H]6[C@H](OS(=O)(=O)O)[C@@H](OS(=O)(=O)O)[C@@H](OC)O[C@@H]6COS(=O)(=O)O)O[C@H]5C(=O)O)O[C@@H]4COS(=O)(=O)O)O[C@@H]3C(=O)O)O[C@@H]2COS(=O)(=O)O)nn1)[C@@H](C)O)C(=O)N[C@@H](Cc1c[nH]c2ccccc12)C(N)=O [Conjugate C31] | > 240 h | –
CO[C@H]1O[C@H](COS(=O)(=O)O)[C@@H](O[C@@H]2O[C@@H](C(=O)O)[C@@H](O[C@H]3O[C@H](COS(=O)(=O)O)[C@@H](O[C@@H]4O[C@H](C(=O)O)[C@@H](O[C@H]5O[C@H](COS(=O)(=O)O)[C@@H](OCCOCCOCCOCCNC(=O)CCc6cn(CCCCC(=O)N[C@H](Cc7ccc(O)cc7)C(=O)N7C[C@H](O)C[C@H]7C(=O)N[C@@H](CC(N)=O)C(=O)N[C@H](C(=O)N[C@@H](Cc7ccccc7)C(=O)NCC(=O)N[C@@H](CC(C)C)C(=O)N[C@@H](CCCNC(=N)N)C(=O)N[C@@H](Cc7c[nH]c8ccccc78)C(N)=O)[C@@H](C)O)nn6)[C@H](OC)[C@H]5OC)[C@H](OC)[C@H]4OC)[C@H](OS(=O)(=O)O)[C@H]3OS(=O)(=O)O)[C@H](OC)[C@H]2OC)[C@H](OC)[C@H]1OS(=O)(=O)O [Conjugate C38] | – | EC50 (human KISS-receptor; [3]): 0.0427 nM; EC50 (human KISS-receptor; [4]): 0.316 nM
CO[C@H]1O[C@H](COS(=O)(=O)O)[C@@H](O[C@@H]2O[C@@H](C(=O)O)[C@@H](O[C@H]3O[C@H](COS(=O)(=O)O)[C@@H](O[C@@H]4O[C@H](C(=O)O)[C@@H](O[C@H]5O[C@H](COS(=O)(=O)O)[C@@H](OCCOCCOCCOCCNC(=O)CCc6cn(CCCCC(=O)N[C@H](Cc7ccc(O)cc7)C(=O)N7C[C@H](O)C[C@H]7C(=O)N[C@@H](CC(N)=O)C(=O)N[C@H](C(=O)N[C@@H](Cc7ccccc7)C(=O)NCC(=O)N[C@@H](CC(C)C)C(=O)N[C@@H](CCCNC(=N)N)C(=O)N[C@@H](Cc7c[nH]c8ccccc78)C(N)=O)[C@@H](C)O)nn6)[C@H](OC)[C@H]5OC)[C@H](OC)[C@H]4OC)[C@H](OS(=O)(=O)O)[C@H]3OS(=O)(=O)O)[C@H](OC)[C@H]2OC)[C@H](OS(=O)(=O)O)[C@H]1OS(=O)(=O)O [Conjugate C39] | – | EC50 (human KISS-receptor; [3]): 0.0646 nM; EC50 (human KISS-receptor; [4]): 2.69 nM
CO[C@H]1O[C@H](COS(=O)(=O)O)[C@@H](O[C@@H]2O[C@@H](C(=O)O)[C@@H](O[C@H]3O[C@H](COS(=O)(=O)O)[C@@H](O[C@@H]4O[C@H](C(=O)O)[C@@H](O[C@H]5O[C@H](COS(=O)(=O)O)[C@@H](OCCOCCOCCOCCNC(=O)CCc6cn(CCOCCOCCOCCOCCC(=O)N[C@@H](Cc7ccc(O)cc7)C(=O)N7C[C@H](O)C[C@H]7C(=O)N[C@@H](CC(N)=O)C(=O)N[C@H](C(=O)N[C@@H](Cc7ccccc7)C(=O)NNC(=O)N[C@@H](CC(C)C)C(=O)N[C@@H](CCCNC(=N)N)C(=O)N[C@@H](Cc7c[nH]c8ccccc78)C(N)=O)[C@@H](C)O)nn6)[C@H](OC)[C@H]5OC)[C@H](OC)[C@H]4OC)[C@H](OS(=O)(=O)O)[C@H]3OS(=O)(=O)O)[C@H](OC)[C@H]2OC)[C@H](OC)[C@H]1OS(=O)(=O)O [Conjugate C40] | – | EC50 (human KISS-receptor; pEC50, absence of human serum): 0.347 nM; EC50 (human KISS-receptor; [2]): 1.66 nM
